Laboratory results published in US20120226186A1 (priority 2009, published 2012).

Key:
[1] = tested on: nociceptive flexor reflexes; conditions: Willer, 1985; cited from earlier work
[2] = all 20 subjects, i.v. computer-controlled infusion

| SMILES | reflex threshold of nociceptive flexor reflexes after application of the analgetic [1] | median effect compartment concentration at loss of reaction to repeated verbal commands ([2]; median) [µg/mL] | range of effect compartment concentration at loss of reaction to repeated verbal commands ([2]; range) [µg/mL] |
| --- | --- | --- | --- |
| CN1CC[C@]23c4c5ccc(O)c4O[C@H]2[C@@H](O)C=C[C@H]3[C@H]1C5 [morphine] | changed in a concentration dependent manner |  |  |
| CC(C)c1cccc(C(C)C)c1O [propofol, 2,6-diisopropylphenol] |  | 4 | 2 to 5 |
